Experimental data: EP0973746B1, “SUBSTITUTED 3-CYANO QUINOLINES” (Wyeth Holdings Corporation, priority 1997, dated 1998)
Converted amounts (≈) assume the structure as drawn. Like-named read-outs stand apart in the source and are kept apart here. Blank lines part the entries; values can stand above or below the compound they belong to.

Columns and labels:
A431 [1] = assay: Inhibition of cell growth by incorporation of [3H]-thymidine, A431; type: cell-based, human; details: [3H]-thymidine incorporation, A431, read-out: IC50 A431
NEU-3T3 = assay: Inhibition of cell growth by incorporation of [3H]-thymidine, Neu-3T3; type: cell-based, mouse; details: [3H]-thymidine incorporation
Procedure: (§1) Representative compounds of this invention were evaluated for their ability to inhibit the growth of the cell lines described below in vitro. The inhibition is quantitated by measuring the decrease in the incorporation of radio-labeled thymidine when the cells are grown in the presence of the inhibitor. […] Cells were routinely grown in a humidified incubator in 5% CO2 in air.
(§2) Cells were seeded at 10,000 cells/well in 96 well plates in complete media and allowed to grow to log phase. At this stage the complete media was replaced with media containing 0.5% FBS (for cells growing in 10% FBS) or media lacking epidermal growth factor (EGF) (for cells growing in serum free media). […] Media with test compound was then removed and complete media was added back. The cells were allowed to grow for 18 hours. This is followed by incubation in [^3H]thymidine (1mCi/ml in serum/EGF media) for 4 hours. Cells were lysed in 0.5 M NaOH for at least 30 min at 37°C and radioactivity analyzed.
(§3) The % inhibition of the compound evaluated was determined for at least three different concentrations and the IC50 value evaluated from the dose response curve. […] CPM(control) is in units of counts per minute and is a number expressing the amount of [^3H]thymidine incorporated onto the DNA when cells are grown in the absence of test compound as measured by liquid scintillation counting.

NHEK = assay: Inhibition of cell growth by incorporation of [3H]-thymidine, NHEK; type: cell-based, human; details: [3H]-thymidine incorporation, read-out: IC50 NHEK
SKBR3 = assay: Inhibition of cell growth by incorporation of [3H]-thymidine, SKBR3; type: cell-based, human
Procedure: as §1, §2, §3

HTB161 = assay: Inhibition of cancer cell growth as measured by cell number, HTB161; type: cell-based; details: Homo sapiens; cell number, Sulforhodamine B, 48 hours exposure; Table 4; read-out: IC50 HTB161
A27805 = assay: Inhibition of cancer cell growth as measured by cell number, A27805; type: cell-based; details: Homo sapiens; cell number, Sulforhodamine B, 48 hours exposure; Table 4; read-out: IC50 A27805
A2780DDP = assay: Inhibition of cancer cell growth as measured by cell number, A2780DDP; type: cell-based; details: Homo sapiens; cell number, Sulforhodamine B, 48 hours exposure; Table 4; read-out: IC50 A2780DDP
MIP = assay: Inhibition of cancer cell growth as measured by cell number, MIP; type: cell-based; details: Homo sapiens; cell number, Sulforhodamine B, 48 hours exposure; Table 4; read-out: IC50 MIP
SW620 = assay: Inhibition of cancer cell growth as measured by cell number, SW620; type: cell-based, human; details: Homo sapiens, SW-620, 48 h, cell number, Sulforhodamine B, 48 hours exposure; Table 4; read-out: IC50 SW620;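 further: SW620 was included as a cell line with little or no EGFR or HER2/neu expression, in contrast to receptor-overexpressing lines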
Source text: (§4) The cell lines were chosen since they overexpressed epidermal growth factor receptor (EGFR) (i.e. A431) or HER2/neu (SKBR3), or had little to no expression of the these receptors (SW620, LOX, MCF7).

COLO205 = assay: Inhibition of cancer cell growth as measured by cell number, COLO205; type: cell-based; details: Homo sapiens, COLO 205; cell number, Sulforhodamine B, 48 hours exposure; Table 4; read-out: IC50 COLO205
CX1 = assay: Inhibition of cancer cell growth as measured by cell number, CX1; type: cell-based; details: Homo sapiens, CX-1; cell number, Sulforhodamine B, 48 hours exposure; Table 4; read-out: IC50 CX1
CACO2 = assay: Inhibition of cancer cell growth as measured by cell number, CACO2; type: cell-based; details: Homo sapiens, Caco-2; cell number, Sulforhodamine B, 48 hours exposure; Table 5; read-out: IC50 CACO2
HCT15 = assay: Inhibition of cancer cell growth as measured by cell number, HCT15; type: cell-based; details: Homo sapiens, HCT-15; cell number, Sulforhodamine B, 48 hours exposure; Table 5; read-out: IC50 HCT15
LS174T = assay: Inhibition of cancer cell growth as measured by cell number, LS174T; type: cell-based; details: Homo sapiens, cell number, Sulforhodamine B, 48 hours exposure, Table 5, read-out: IC50 LS174T
SW948 = assay: Inhibition of cancer cell growth as measured by cell number, SW948; type: cell-based; details: Homo sapiens, SW948; cell number, Sulforhodamine B, 48 hours exposure; Table 5; read-out: IC50 SW948
CCL228 = assay: Inhibition of cancer cell growth as measured by cell number, CCL228; type: cell-based; details: Homo sapiens; cell number, Sulforhodamine B, 48 hours exposure; Table 5; read-out: IC50 CCL228
B7474 = assay: Inhibition of cancer cell growth as measured by cell number, B7474; type: cell-based; details: Homo sapiens; cell number, Sulforhodamine B, 48 hours exposure; Table 6; read-out: IC50 B7474
T47D = assay: Inhibition of cancer cell growth as measured by cell number, T47D; type: cell-based; details: Homo sapiens, cell number, Sulforhodamine B, 48 hours exposure, Table 6, read-out: IC50 T47D
LX1 = assay: Inhibition of cancer cell growth as measured by cell number, LX1; type: cell-based; details: Homo sapiens, LX-1; cell number, Sulforhodamine B, 48 hours exposure; Table 6; read-out: IC50 LX1
A549 = assay: Inhibition of cancer cell growth as measured by cell number, A549; type: cell-based; details: Homo sapiens, A549; cell number, Sulforhodamine B, 48 hours exposure; Table 6; read-out: IC50 A549
LOX = assay: Inhibition of cancer cell growth as measured by cell number, LOX; type: cell-based, human; details: Homo sapiens, LOX, 48 h, cell number, Sulforhodamine B, 48 hours exposure; Table 6; read-out: IC50 LOX;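 further: LOX cells served as a line with low or absent EGFR and HER2/neu expression, in contrast to receptor-overexpressing lines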
Source text: as §4

A431 [2] = assay: Inhibition of cancer cell growth as measured by cell number, A431; type: cell-based, human; details: Homo sapiens, A-431, 48 h, cell number, Sulforhodamine B, 48 hours exposure; Table 6; read-out: IC50 A431;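 further: human A431 line, picked because it overexpresses epidermal growth factor receptor (EGFR)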
Source text: as §4

NEC = assay: Inhibition of cancer cell growth as measured by cell number, NEC; type: cell-based; details: Homo sapiens; cell number, Sulforhodamine B, 48 hours exposure; Table 6; read-out: IC50 NEC
DU145 = assay: Inhibition of cancer cell growth as measured by cell number, DU145; type: cell-based; details: Homo sapiens, DU-145; cell number, Sulforhodamine B, 48 hours exposure; Table 7; read-out: IC50 DU145
PC3 = assay: Inhibition of cancer cell growth as measured by cell number, PC3; type: cell-based; details: Homo sapiens, PC-3; cell number, Sulforhodamine B, 48 hours exposure; Table 7; read-out: IC50 PC3
LNCAP = assay: Inhibition of cancer cell growth as measured by cell number, LNCAP; type: cell-based; details: Homo sapiens, cell number, Sulforhodamine B, 48 hours exposure, Table 7, read-out: IC50 LNCAP
HL60 = assay: Inhibition of cancer cell growth as measured by cell number, HL60; type: cell-based; details: Homo sapiens, HL-60; cell number, Sulforhodamine B, 48 hours exposure; Table 7; read-out: IC50 HL60
CCRF-CFM = assay: Inhibition of cancer cell growth as measured by cell number, CCRF-CFM; type: cell-based; details: Homo sapiens; cell number, Sulforhodamine B, 48 hours exposure; Table 7; read-out: IC50 CCRF-CFM
[3] = molecular target: epidermal growth factor receptor kinase (Homo sapiens, UniProt P00533); assay: biochemical
Sequence of epidermal growth factor receptor kinase (P00533 25-1210): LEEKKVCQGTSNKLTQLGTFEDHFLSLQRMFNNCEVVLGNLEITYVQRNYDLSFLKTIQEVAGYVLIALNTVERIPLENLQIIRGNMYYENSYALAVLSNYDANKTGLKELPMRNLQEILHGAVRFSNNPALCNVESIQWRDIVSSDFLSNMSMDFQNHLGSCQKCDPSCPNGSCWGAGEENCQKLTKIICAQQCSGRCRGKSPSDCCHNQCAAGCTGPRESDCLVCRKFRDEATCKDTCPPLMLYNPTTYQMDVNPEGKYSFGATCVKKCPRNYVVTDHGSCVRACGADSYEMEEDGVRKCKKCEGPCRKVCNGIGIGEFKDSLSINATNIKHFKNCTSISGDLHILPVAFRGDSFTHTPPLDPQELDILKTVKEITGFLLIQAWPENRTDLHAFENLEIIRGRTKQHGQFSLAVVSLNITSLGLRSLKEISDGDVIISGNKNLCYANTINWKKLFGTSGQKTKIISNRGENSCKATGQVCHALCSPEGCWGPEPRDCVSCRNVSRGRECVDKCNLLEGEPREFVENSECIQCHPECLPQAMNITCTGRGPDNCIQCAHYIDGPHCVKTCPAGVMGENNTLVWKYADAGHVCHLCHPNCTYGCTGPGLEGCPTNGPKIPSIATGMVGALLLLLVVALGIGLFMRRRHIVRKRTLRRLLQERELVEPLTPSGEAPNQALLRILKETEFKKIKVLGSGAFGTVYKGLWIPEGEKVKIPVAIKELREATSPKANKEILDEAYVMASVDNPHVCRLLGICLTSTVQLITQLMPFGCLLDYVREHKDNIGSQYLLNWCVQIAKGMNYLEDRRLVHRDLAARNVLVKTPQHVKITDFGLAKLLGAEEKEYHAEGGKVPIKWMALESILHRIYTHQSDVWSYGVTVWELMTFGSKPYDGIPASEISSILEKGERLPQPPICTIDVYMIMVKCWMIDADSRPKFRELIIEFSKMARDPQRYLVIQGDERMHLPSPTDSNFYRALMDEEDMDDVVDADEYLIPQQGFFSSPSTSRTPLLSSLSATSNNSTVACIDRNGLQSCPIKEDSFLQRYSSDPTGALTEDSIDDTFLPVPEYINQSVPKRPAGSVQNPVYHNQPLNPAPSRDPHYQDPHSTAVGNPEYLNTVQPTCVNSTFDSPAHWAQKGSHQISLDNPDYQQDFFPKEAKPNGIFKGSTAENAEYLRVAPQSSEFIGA

IC50 (A431 [1]): 0.1 µM | IC50 (SKBR3; [3H]-thymidine incorporation): > 50 µM
Compound: CCOC(=O)c1cnc2cc(OC)c(OC)cc2c1O [Example 26, 3-Carbethoxy-4-hydroxy-6.7-dimethoxyquinoline]
IC50 (NEU-3T3): > 50 µM | IC50 (NHEK): 0.4 µM

Compound: CC#CC(=O)Nc1ccc2ncc(C#N)c(Nc3ccc(Br)c(Br)c3)c2c1 [Example 22, N-[4-[(3,4-dibromophenyl)amino]-3-cyano-6-quinolinyl]-2-butynamide]
IC50 (A431 [1]; Homo sapiens, A-431): 0.15 µM | IC50 (NEU-3T3; Mus musculus): > 50 µM | IC50 (NHEK; Homo sapiens): 0.035 µM | IC50 (SKBR3; Homo sapiens, SK-BR-3, [3H]-thymidine incorporation): > 50 µM | IC50 (HTB161): 0.248 µg/mL (≈ 0.512 µM) | IC50 (A27805): 0.0567 µg/mL (≈ 0.117 µM) | IC50 (A2780DDP): 0.211 µg/mL (≈ 0.436 µM) | IC50 (MIP): 0.378 µg/mL (≈ 0.782 µM) | IC50 (SW620): 0.526 µg/mL (≈ 1.09 µM) | IC50 (COLO205): 4.3 µg/mL (≈ 8.89 µM) | IC50 (CX1): 0.775 µg/mL (≈ 1.6 µM) | IC50 (CACO2): 0.475 µg/mL (≈ 0.982 µM) | IC50 (HCT15): 0.372 µg/mL (≈ 0.769 µM) | IC50 (LS174T): 0.847 µg/mL (≈ 1.75 µM) | IC50 (SW948): 0.593 µg/mL (≈ 1.23 µM) | IC50 (CCL228): 0.255 µg/mL (≈ 0.527 µM) | IC50 (B7474): 0.314 µg/mL (≈ 0.648 µM) | IC50 (T47D): 0.704 µg/mL (≈ 1.45 µM) | IC50 (LX1): 0.81 µg/mL (≈ 1.67 µM) | IC50 (A549): 0.375 µg/mL (≈ 0.775 µM) | IC50 (LOX): 0.0225 µg/mL (≈ 0.0465 µM) | IC50 (A431 [2]): 0.0443 µg/mL (≈ 0.0915 µM) | IC50 (NEC): 0.492 µg/mL (≈ 1.02 µM) | IC50 (DU145): 0.265 µg/mL (≈ 0.548 µM) | IC50 (PC3): 0.695 µg/mL (≈ 1.44 µM) | IC50 (LNCAP): 0.722 µg/mL (≈ 1.49 µM) | IC50 (HL60): 0.608 µg/mL (≈ 1.26 µM) | IC50 (CCRF-CFM): 0.403 µg/mL (≈ 0.833 µM) | IC50 [3]: 3 µM
